Measurements from the kinase profiling compilation of Christmann-Franck et al. (2016).

Assays:
Assay in all cases: KINOMEscan competition binding
Details in all cases: compound 10.0 µM
ACVR1B (human) = ACVR1B (human) (UniProt P36896)
ADCK4 (human) = ADCK4 (human) (UniProt Q96D53)
CAMK1D (human) = CAMK1D (human) (UniProt Q8IU85)
CDK15 (human) = CDK15 (human) (UniProt Q96Q40)
CDK7 (human) = CDK7 (human) (UniProt P50613)
CHUK (human) = CHUK (human) (UniProt O15111)
CSNK1A1L (human) = CSNK1A1L (human) (UniProt Q8N752)
CSNK2A1 (human) = CSNK2A1 (human) (UniProt P68400)
EPHA5 (human) = EPHA5 (human) (UniProt P54756)
EPHB6 (human) = EPHB6 (human) (UniProt O15197)
FGFR1 (human) = FGFR1 (human) (UniProt P11362)
FLT1 (human) = FLT1 (human) (UniProt P17948)
GAK (human) = GAK (human) (UniProt O14976)
HCK (human) = HCK (human) (UniProt P08631)
[1] = biological target: JAK1 JH2 pseudokinase (human) (UniProt P23458)
LRRK2 (human) = LRRK2 (human) (UniProt Q5S007)
MAP3K4 (human) = MAP3K4 (human) (UniProt Q9Y6R4)
MKNK2 (human) = MKNK2 (human) (UniProt Q9HBH9)
MST1R (human) = MST1R (human) (UniProt Q04912)
NEK11 (human) = NEK11 (human) (UniProt Q8NG66)
NEK5 (human) = NEK5 (human) (UniProt Q6P3R8)
NEK7 (human) = NEK7 (human) (UniProt Q8TDX7)
NEK9 (human) = NEK9 (human) (UniProt Q8TD19)
NTRK1 (human) = NTRK1 (human) (UniProt P04629)
PAK4 (human) = PAK4 (human) (UniProt O96013)
PDPK1 (human) = PDPK1 (human) (UniProt O15530)
PKN1 (human) = PKN1 (human) (UniProt Q16512)
PKN3 (M.tuberculosis) = PKN3 (M.tuberculosis) (UniProt Q6P5Z2)
RIPK1 (human) = RIPK1 (human) (UniProt Q13546)
RIPK2 (human) = RIPK2 (human) (UniProt O43353)
ROS1 (human) = ROS1 (human) (UniProt P08922)
SRPK3 (human) = SRPK3 (human) (UniProt Q9UPE1)
STK16 (human) = STK16 (human) (UniProt O75716)
STK17B (human) = STK17B (human) (UniProt O94768)
STK32C (human) = STK32C (human) (UniProt Q86UX6)
STK38L (human) = STK38L (human) (UniProt Q9Y2H1)
TLK1 (human) = TLK1 (human) (UniProt Q9UKI8)
TNK2 (human) = TNK2 (human) (UniProt Q07912)
YES1 (human) = YES1 (human) (UniProt P07947)
YSK4 (human) = YSK4 (human) (UniProt Q56UN5)

NEK9 (human), sequence (Q8TD19 whole entry, looked up): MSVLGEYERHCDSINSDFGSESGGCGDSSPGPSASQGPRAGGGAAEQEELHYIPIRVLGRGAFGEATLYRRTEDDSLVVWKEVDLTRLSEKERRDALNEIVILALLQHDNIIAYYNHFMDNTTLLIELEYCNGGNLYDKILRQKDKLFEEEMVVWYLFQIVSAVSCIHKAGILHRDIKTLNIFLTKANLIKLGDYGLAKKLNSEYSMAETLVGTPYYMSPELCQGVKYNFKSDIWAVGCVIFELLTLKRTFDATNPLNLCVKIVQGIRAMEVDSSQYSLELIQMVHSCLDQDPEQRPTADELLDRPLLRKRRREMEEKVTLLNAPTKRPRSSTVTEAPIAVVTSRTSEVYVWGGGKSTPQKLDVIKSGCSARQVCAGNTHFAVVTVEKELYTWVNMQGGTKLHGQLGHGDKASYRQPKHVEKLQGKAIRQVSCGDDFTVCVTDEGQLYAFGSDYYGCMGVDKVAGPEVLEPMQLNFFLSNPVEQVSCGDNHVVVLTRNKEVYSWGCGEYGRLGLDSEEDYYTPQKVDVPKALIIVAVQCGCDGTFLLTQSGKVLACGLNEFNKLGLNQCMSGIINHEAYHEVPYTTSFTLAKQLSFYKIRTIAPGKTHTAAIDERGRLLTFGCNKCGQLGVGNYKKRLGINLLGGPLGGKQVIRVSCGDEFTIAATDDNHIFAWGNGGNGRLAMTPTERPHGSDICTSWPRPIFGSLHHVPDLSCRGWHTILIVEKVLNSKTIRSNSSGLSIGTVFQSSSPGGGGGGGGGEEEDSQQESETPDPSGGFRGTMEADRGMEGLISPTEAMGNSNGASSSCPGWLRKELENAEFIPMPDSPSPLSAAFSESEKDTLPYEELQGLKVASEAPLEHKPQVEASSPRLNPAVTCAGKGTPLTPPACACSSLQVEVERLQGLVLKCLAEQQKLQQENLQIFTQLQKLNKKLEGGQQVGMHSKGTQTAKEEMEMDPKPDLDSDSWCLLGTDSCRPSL
MST1R (human), sequence (Q04912 whole entry, looked up): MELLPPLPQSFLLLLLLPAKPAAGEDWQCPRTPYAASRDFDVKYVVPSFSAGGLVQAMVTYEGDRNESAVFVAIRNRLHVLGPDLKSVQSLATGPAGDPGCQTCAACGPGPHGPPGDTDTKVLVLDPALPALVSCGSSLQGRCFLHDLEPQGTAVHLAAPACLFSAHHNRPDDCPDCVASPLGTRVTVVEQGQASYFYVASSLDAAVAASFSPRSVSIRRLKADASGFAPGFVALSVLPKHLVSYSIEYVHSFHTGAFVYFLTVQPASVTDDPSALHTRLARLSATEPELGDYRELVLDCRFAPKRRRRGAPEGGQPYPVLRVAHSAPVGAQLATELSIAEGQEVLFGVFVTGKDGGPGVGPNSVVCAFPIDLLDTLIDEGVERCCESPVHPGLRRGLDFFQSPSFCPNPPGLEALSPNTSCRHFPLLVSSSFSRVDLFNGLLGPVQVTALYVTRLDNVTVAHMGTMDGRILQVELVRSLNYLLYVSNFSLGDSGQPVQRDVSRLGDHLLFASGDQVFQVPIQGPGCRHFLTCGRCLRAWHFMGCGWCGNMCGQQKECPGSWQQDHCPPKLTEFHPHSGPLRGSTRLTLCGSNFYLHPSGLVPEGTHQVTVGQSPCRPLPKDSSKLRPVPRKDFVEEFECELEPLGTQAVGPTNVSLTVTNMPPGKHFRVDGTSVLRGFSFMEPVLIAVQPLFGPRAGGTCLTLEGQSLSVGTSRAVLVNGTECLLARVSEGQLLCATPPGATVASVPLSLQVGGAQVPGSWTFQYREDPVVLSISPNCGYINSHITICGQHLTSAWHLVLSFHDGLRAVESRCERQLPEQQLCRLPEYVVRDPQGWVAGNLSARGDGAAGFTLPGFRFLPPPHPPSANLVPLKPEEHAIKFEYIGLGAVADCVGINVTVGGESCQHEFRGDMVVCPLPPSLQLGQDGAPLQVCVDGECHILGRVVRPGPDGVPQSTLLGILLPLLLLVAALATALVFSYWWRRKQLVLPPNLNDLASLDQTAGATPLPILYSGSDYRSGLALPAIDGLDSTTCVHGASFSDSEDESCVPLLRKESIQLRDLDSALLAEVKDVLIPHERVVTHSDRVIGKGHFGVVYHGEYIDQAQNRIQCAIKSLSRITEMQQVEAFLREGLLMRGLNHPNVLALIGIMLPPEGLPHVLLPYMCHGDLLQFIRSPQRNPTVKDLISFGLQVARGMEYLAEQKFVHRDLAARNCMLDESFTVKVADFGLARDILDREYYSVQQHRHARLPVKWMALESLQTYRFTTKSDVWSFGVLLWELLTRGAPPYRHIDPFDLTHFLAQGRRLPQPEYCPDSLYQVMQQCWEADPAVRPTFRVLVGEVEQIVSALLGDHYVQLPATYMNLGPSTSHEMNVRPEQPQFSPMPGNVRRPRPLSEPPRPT
ROS1 (human), sequence (P08922 whole entry, looked up): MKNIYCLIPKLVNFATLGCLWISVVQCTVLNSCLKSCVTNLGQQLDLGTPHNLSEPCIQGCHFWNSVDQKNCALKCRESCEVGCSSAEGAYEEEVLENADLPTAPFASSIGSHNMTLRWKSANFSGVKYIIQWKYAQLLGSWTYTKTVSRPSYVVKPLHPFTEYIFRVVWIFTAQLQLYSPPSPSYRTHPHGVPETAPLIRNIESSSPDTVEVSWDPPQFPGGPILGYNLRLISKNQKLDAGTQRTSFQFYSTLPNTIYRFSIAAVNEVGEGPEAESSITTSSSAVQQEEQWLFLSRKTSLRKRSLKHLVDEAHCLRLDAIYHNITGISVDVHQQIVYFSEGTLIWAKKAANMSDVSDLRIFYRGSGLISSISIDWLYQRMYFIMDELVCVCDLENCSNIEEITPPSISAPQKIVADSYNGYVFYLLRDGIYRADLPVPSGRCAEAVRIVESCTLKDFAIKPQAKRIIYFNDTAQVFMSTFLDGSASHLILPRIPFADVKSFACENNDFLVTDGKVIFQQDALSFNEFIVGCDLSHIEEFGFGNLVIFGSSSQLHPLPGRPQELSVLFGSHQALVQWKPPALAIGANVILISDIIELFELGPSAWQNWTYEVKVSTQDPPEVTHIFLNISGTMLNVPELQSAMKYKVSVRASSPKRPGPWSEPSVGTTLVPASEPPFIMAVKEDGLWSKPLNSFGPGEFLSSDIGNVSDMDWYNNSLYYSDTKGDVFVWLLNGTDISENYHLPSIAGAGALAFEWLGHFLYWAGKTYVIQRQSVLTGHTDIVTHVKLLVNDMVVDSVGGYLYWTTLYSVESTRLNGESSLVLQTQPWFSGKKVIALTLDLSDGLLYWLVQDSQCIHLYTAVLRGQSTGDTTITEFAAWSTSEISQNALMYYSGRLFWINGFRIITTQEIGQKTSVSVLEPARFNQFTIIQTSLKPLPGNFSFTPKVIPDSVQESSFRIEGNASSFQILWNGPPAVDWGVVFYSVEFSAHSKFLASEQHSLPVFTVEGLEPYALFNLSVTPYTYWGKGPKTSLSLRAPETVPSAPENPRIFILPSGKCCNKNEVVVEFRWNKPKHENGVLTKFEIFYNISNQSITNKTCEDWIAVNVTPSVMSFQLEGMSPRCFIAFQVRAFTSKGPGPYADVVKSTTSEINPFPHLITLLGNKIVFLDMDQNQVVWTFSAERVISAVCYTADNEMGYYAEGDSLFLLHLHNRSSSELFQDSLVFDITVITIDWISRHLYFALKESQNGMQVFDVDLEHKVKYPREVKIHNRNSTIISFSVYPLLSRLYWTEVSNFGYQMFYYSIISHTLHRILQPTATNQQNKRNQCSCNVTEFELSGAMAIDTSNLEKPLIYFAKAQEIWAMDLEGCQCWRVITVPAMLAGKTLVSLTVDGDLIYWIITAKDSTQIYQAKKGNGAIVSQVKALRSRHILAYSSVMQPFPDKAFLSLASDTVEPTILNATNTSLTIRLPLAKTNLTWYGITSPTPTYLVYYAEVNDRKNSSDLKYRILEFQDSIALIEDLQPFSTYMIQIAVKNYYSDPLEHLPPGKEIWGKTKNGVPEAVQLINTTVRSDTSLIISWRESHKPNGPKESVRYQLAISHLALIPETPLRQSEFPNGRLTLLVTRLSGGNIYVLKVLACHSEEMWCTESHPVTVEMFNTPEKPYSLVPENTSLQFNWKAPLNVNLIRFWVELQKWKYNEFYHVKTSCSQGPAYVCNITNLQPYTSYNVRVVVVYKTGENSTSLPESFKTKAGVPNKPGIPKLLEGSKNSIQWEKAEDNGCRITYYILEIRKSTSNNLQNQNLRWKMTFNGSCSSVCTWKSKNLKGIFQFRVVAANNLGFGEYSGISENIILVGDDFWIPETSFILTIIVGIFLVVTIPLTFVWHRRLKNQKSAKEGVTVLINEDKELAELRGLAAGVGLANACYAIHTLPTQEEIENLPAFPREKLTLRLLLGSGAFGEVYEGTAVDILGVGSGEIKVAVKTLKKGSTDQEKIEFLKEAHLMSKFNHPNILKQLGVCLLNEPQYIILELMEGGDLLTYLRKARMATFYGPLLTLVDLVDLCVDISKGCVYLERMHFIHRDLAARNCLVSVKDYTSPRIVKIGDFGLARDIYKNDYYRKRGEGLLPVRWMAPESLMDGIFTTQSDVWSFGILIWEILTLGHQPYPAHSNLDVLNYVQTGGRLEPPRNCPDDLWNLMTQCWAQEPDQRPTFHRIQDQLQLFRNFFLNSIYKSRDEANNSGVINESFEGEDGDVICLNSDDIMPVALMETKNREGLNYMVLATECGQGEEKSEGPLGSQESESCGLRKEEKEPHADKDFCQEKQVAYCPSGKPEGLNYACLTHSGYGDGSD
STK16 (human), sequence (O75716 whole entry, looked up): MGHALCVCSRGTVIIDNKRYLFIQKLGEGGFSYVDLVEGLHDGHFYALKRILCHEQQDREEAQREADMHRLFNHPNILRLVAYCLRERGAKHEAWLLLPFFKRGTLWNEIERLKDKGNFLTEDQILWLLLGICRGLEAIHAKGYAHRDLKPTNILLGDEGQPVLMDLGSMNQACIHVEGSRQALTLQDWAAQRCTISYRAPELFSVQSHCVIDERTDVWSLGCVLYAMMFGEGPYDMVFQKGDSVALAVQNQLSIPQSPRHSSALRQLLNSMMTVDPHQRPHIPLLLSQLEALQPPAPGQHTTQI

Row | Compound | kinase still bound, per cent of control (ACVR1B (human)) [%] | kinase still bound, per cent of control (ADCK4 (human)) [%] | kinase still bound, per cent of control (CAMK1D (human)) [%] | kinase still bound, per cent of control (CHUK (human)) [%] | kinase still bound, per cent of control (CSNK1A1L (human)) [%] | kinase still bound, per cent of control (CSNK2A1 (human)) [%] | kinase still bound, per cent of control (EPHA5 (human)) [%] | kinase still bound, per cent of control (EPHB6 (human)) [%] | kinase still bound, per cent of control (FGFR1 (human)) [%] | kinase still bound, per cent of control (FLT1 (human)) [%] | kinase still bound, per cent of control (GAK (human)) [%] | kinase still bound, per cent of control (LRRK2 (human)) [%] | kinase still bound, per cent of control (MAP3K4 (human)) [%] | kinase still bound, per cent of control (MKNK2 (human)) [%] | kinase still bound, per cent of control (MST1R (human)) [%] | kinase still bound, per cent of control (NEK11 (human)) [%] | kinase still bound, per cent of control (NEK5 (human)) [%] | kinase still bound, per cent of control (NEK7 (human)) [%] | kinase still bound, per cent of control (NEK9 (human)) [%] | kinase still bound, per cent of control (PAK4 (human)) [%] | other results
1 | COc1cc(C(=O)N2CCC(N3CCN(C)CC3)CC2)ccc1Nc1ncc2c(n1)N(C)c1ccccc1C(=O)N2C | 100 | 94 | 69 | 100 | 100 | 100 | 95 | 31 | 86 | 100 | 16 | 0 | 100 | 1.2 | 98 | 100 | 100 | 100 | 100 | 94 | kinase still bound, per cent of control (CDK15 (human)): 100%; kinase still bound, per cent of control (CDK7 (human)): 86%; kinase still bound, per cent of control (HCK (human)): 100%; kinase still bound, per cent of control [1]: 92%; kinase still bound, per cent of control (NTRK1 (human)): 69%; kinase still bound, per cent of control (PDPK1 (human)): 100%; kinase still bound, per cent of control (PKN1 (human)): 100%; kinase still bound, per cent of control (PKN3 (M.tuberculosis)): 100%; kinase still bound, per cent of control (RIPK1 (human)): 99%; kinase still bound, per cent of control (RIPK2 (human)): 100%; kinase still bound, per cent of control (ROS1 (human)): 12%; kinase still bound, per cent of control (SRPK3 (human)): 72%; kinase still bound, per cent of control (STK16 (human)): 62%; kinase still bound, per cent of control (STK17B (human)): 93%; kinase still bound, per cent of control (STK32C (human)): 100%; kinase still bound, per cent of control (STK38L (human)): 100%; kinase still bound, per cent of control (TLK1 (human)): 100%; kinase still bound, per cent of control (TNK2 (human)): 18%; kinase still bound, per cent of control (YES1 (human)): 100%; kinase still bound, per cent of control (YSK4 (human)): 99%
2 | COc1cc2ncn(-c3cc(OCc4ccccc4C(F)(F)F)c(C(N)=O)s3)c2cc1OC | 76 | 71 | 100 | 86 | 78 | 30 | 90 | 9.9 | 43 | 58 | 4.1 | 80 | 90 | 76 | 100 | 100 | 36 | 74 | 48 | 100 | kinase still bound, per cent of control (HCK (human)): 72%; kinase still bound, per cent of control [1]: 100%; kinase still bound, per cent of control (NTRK1 (human)): 78%; kinase still bound, per cent of control (PDPK1 (human)): 66%; kinase still bound, per cent of control (PKN1 (human)): 76%; kinase still bound, per cent of control (PKN3 (M.tuberculosis)): 76%; kinase still bound, per cent of control (RIPK1 (human)): 74%; kinase still bound, per cent of control (RIPK2 (human)): 41%; kinase still bound, per cent of control (ROS1 (human)): 78%; kinase still bound, per cent of control (SRPK3 (human)): 16%; kinase still bound, per cent of control (STK16 (human)): 49%; kinase still bound, per cent of control (STK17B (human)): 85%; kinase still bound, per cent of control (STK32C (human)): 100%; kinase still bound, per cent of control (STK38L (human)): 100%; kinase still bound, per cent of control (TLK1 (human)): 96%; kinase still bound, per cent of control (TNK2 (human)): 54%; kinase still bound, per cent of control (YES1 (human)): 97%; kinase still bound, per cent of control (YSK4 (human)): 34%
3 | N#CCNC(=O)c1ccc(-c2ccnc(Nc3ccc(N4CCOCC4)cc3)n2)cc1 | 38 | 33 | 40 | 0 | 100 | 52 | 87 | 58 | 86 | 55 | 3.4 | 48 | 92 | 1.2 | 100 | 100 | 2.4 | 2.2 | 9.4 | 100 | kinase still bound, per cent of control (CDK15 (human)): 58%; kinase still bound, per cent of control (CDK7 (human)): 3.8%; kinase still bound, per cent of control (HCK (human)): 100%; kinase still bound, per cent of control [1]: 100%; kinase still bound, per cent of control (PDPK1 (human)): 100%; kinase still bound, per cent of control (PKN1 (human)): 66%; kinase still bound, per cent of control (PKN3 (M.tuberculosis)): 8.7%; kinase still bound, per cent of control (RIPK1 (human)): 63%; kinase still bound, per cent of control (RIPK2 (human)): 88%; kinase still bound, per cent of control (ROS1 (human)): 100%; kinase still bound, per cent of control (SRPK3 (human)): 18%; kinase still bound, per cent of control (STK16 (human)): 6.2%; kinase still bound, per cent of control (STK17B (human)): 2.6%; kinase still bound, per cent of control (STK32C (human)): 100%; kinase still bound, per cent of control (STK38L (human)): 71%; kinase still bound, per cent of control (TLK1 (human)): 59%; kinase still bound, per cent of control (TNK2 (human)): 93%; kinase still bound, per cent of control (YES1 (human)): 91%; kinase still bound, per cent of control (YSK4 (human)): 1.7%
4 | COCC(=O)NC/C=C/c1ccc2ncnc(Nc3ccc(Oc4ccc(C)nc4)c(C)c3)c2c1 | 100 | 98 | 87 | 100 | 82 | 87 | 100 | 74 | 100 | 88 | 84 | 100 | 97 | 1.4 | 100 | 100 | 100 | 73 | 82 | 87 | kinase still bound, per cent of control (CDK15 (human)): 71%; kinase still bound, per cent of control (CDK7 (human)): 100%; kinase still bound, per cent of control (NTRK1 (human)): 89%; kinase still bound, per cent of control (PDPK1 (human)): 100%; kinase still bound, per cent of control (PKN1 (human)): 100%; kinase still bound, per cent of control (PKN3 (M.tuberculosis)): 23%; kinase still bound, per cent of control (RIPK1 (human)): 100%; kinase still bound, per cent of control (RIPK2 (human)): 26%; kinase still bound, per cent of control (ROS1 (human)): 100%; kinase still bound, per cent of control (SRPK3 (human)): 100%; kinase still bound, per cent of control (STK17B (human)): 100%; kinase still bound, per cent of control (STK32C (human)): 86%; kinase still bound, per cent of control (STK38L (human)): 100%; kinase still bound, per cent of control (TLK1 (human)): 79%; kinase still bound, per cent of control (TNK2 (human)): 78%; kinase still bound, per cent of control (YES1 (human)): 65%; kinase still bound, per cent of control (YSK4 (human)): 100%
